Reference: US20240133870A1, “COMBINED TREATMENT FOR CANCER” (Yeda Research and Development Co. Ltd., priority 2021, published 2024)

Tests used:
[1] = test system: UACC62 melanoma BRAF (V600E) cell line; assay: Human and mouse factor mediated resistance to vemurafenib in vitro; format: cell-based; conditions: for factor-mediated resistance to vemurafenib: FGF2 25 ng/ml
Method: P-value of the rScore abrogation following the addition of FGFRi was calculated by two-sided t-test. ** P<0.01.

human NSCLC tumor biopsy = assay: EVOC of NSCLC patient biopsies, viability; format: cell-based; conditions: treatment-naïve patient; osimertinib 4 μM alone
Excerpt: Error bars represent standard error. […] Scale bar represents 50 μm. […] Error bars represent standard error. […] Scale bar represents 50 μm.
Scale bar represents 50 μm. […] Scale bar represents 50 μm. […] Scale bar represents 50 μm.

[2] = test system: SK-MEL-5 BRAF (V600E) melanoma cells; assay: Co-culture of stroma (WI-38 or HS-5) and cancer cells; format: cell-based, human
Method: SK-MEL-5 BRAF (V600E) melanoma cells were co-cultured with the lung-derived stromal cell line WI-38 or with the bone marrow-derived stromal cell line HS-5 with or without vemurafenib (4 μM). […] Vehicle—DMSO, EGFRi—gefitinib (0.1 μM), EGFRi/HER2i—lapatinib (10 nM), METi—crizotinib (0.1 μM), FGFRi—AZD4547 (50 nM), NFkB/TNFRi—CAPE (10 μM), TGFBRi-LY2109761 (0.5 μM), gp130i—SC144 (1 nM). […] Error bars represent standard error. […] Error bars represent standard error. […] Human BRAF (V600E) melanoma cell lines UACC62 or G361 were used to generate xenograft tumor models in various tissues of nude mice. When tumors reached a volume of 500-700 μmm^3, they were resected, sliced, and cultured ex-vivo in the presence of different drug combinations or DMSO control. Following 4 days of drug treatment, slices were fixed, embedded in paraffin blocks, and subjected to immunohistochemistry, using anti-pERK antibody, or to immuno-fluorescence, using anti-pFGFR1 antibody. BRAFi (vemurafenib, 4 μM), FGFRi (AZD4547, 2 μM). Scale bar represents 50 μm.
Four hours later, the melanoma BRAF (V600E) mutated cell line SK-MEL-5 was seeded on top of the stromal cells at a concentration of 1700 cells per well, or seeded without stroma. […] Concentrations of the inhibitors were based on dose curves with SK-MEL-5. For each inhibitor of potential mechanism of resistance, the maximal concentration with minimal effect (toxicity) on cell growth was selected (Cmax).
To compare rScore value of stroma-mediated resistance with or without a given inhibitor, the rScore values of each inhibitor in the presence of stroma, was calculated. As a reduction in rScore may stem from mere toxicity of the inhibitor, rather than the abrogation of the stroma mediated resistance, each inhibitor rScore was penalized by its toxicity.
rScoreinhibitor=rScoreinhibitor+(rScorestroma−rScoreinhibitor)*tOxicitY(Cmax)inhibitor

[3] = test system: BRAF (V600E) melanoma cell lines; assay: High-throughput secretome screen of GFP-labeled cells (rScore, bScore, ranks); format: cell-based, human; conditions: for effect on resistance to BRAF/MEK inhibition (rScore sorted, 297 factors): UACC62 cell line
Method: Cell lines—All cell lines (Table 1 hereinbelow) were cultured in DMEM supplemented with 100 units/ml Penicillin and Streptomycin, 2 μmM Glutamine, 1 μmM Pyruvate and 10% FCS, and maintained in a humidified incubator at 37° C. and 5% CO2. Cells were routinely tested for Mycoplasma contamination by PCR. To generate stable cell lines constitutively expressing GFP, cells were infected with lentivirus bearing plasmid pLEX_TRC206 and sorted by FACS to enrich for GFP positive population. For the in-vitro experiments, human cancer cell lines which constitutively expressed GFP were treated with various cytotoxic and targeted drugs (see Table 1 hereinbelow); and the effect of different secreted factors (Table 2 hereinbelow) on the innate resistance to a drug based on the cells' GFP level was determined.
High throughput in-vitro screens—For high-throughput screens or drug dose curves, cells were counted by Vi-Cell XR (Beckman coulter). Cells were seeded on 384 wells plates (Corning, 3712) using the EL406 washer dispenser (BioTek). Liquid handling of medium and drugs was effected by CyBi (WellFlex vario, CyBio). GFP fluorescence of cells was measured at 477/517 nm (excitation/emission) using Cytation3 (BioTek). Due to fluorescence reading bias at plate margins and corners, these margins were discarded for analysis.
High-throughput secretome screens—To screen for the effect of secreted factors on the response of cell lines to different drugs, the following seven-days procedure was performed. On day 0, GFP expressing cells were seeded at 1500-2000 cells per well on 384-wells plates (Corning, 3712), depending on the cell line's proliferation rate. Each plate was seeded with one cell line. At day 1, each plate was treated with the secretome library (Table 2 hereinabove), one well per factor. Immediately afterwards, each plate was treated either with a drug (Table 1 hereinabove) at the EC90 concentration or with DMSO control. The CyBi liquid handler was used to treat each plate with a drug and the secretome library as well as to replace the medium, drug and secreted factors following 3 days of incubation (day 4). Cell fluorescence was read at days 1, 4 and 7 by Cytation3, and for some of the experiments at day 6 as well. Wells of interest were imaged at day 7 using the Operetta (PerkinElmer).
(2) Based on observations, the plate area spanning rows 4-13 and columns 4-21 was hardly affected by plate margins biases. This area is referred to herein as plate core. To control for row specific and column specific biases, plate outliers (Zscore>4 or Zscore<−4) and edges were masked. Next, to capture row and column (col) biases for the i-th row and the j-th column, the bias factor was calculated:
Upon QC completion, 199 experiment plates and 79 control (DMSO) plates were left for further analysis. • 4—Scoring methods-A GFP value for wells without secretome factors was obtained by averaging over the plate internal control wells. Those wells contained the solvents used in the secretome library. pScore: The effect of the secreted factors on proliferation under DMSO was evaluated using pScore (proliferation score). Values were given in percent units.
rScore: The effect of the secreted factors on resistance to anti-cancer drugs was evaluated using rScore (rescue score). rScore was assigned to a given factor under two conditions: • 1. drug effect was >30% (residual drug growth<0.7) • 2. proliferation ratio between factor treated and untreated cells in the presence of drug was higher than one:
rSscore=S−S*residual drug growth
Based on manual inspection of the rScore distribution across the data, the threshold for a potential effect on drug resistance was set to 0.2 (FIGS. 8A-D).
(*) Negative values were considered as zero. […] Groups with less than 4 experiments were discarded, finally resulting in 13 groups of experiments (FIG. 1E). […]

[4] = vemurafenib 2 μM, mTNF 50 ng/ml
[5] = 80 experiments of BRAF (V600E) mutated melanoma cell lines treated with BRAF/MEK inhibitors
[6] = 80 experiments of BRAF (V600E) mutated melanoma cell lines treated with BRAF/MEK inhibitors, in multiple experiments

FC(F)(F)c1nnc2c(Sc3ccccc3)nc3ccc(Cl)cc3n12 [R7050, reference compound]
toxicity to UACC62 ([1]; all concentrations tested): not toxic
abrogation of mouse TNF mediated resistance ([1]; vemurafenib 2 μM, mTNF 50 ng/ml, range of concentrations): does not abrogate the mouse TNF mediated resistance

C=CC(=O)Nc1cc(Nc2nccc(-c3cn(C)c4ccccc34)n2)c(OC)cc1N(C)CCN(C)C [osimertinib]
cancer cell viability (human NSCLC tumor biopsy): did not affect cancer cell viability

CCCS(=O)(=O)Nc1ccc(F)c(C(=O)c2c[nH]c3ncc(-c4ccc(Cl)cc4)cc23)c1F [vemurafenib]
rScore of stroma-conferred resistance ([2]; co-culture with bone-marrow derived stromal cell line HS-5): > 0.2
rScore of stroma-conferred resistance ([2]; co-culture with lung-derived stromal cell line WI-38): > 0.2

FGF2: human FGF2, recombinant secreted factor, FGFR ligand
factor-mediated resistance to vemurafenib [1, 4]: mediated resistance to vemurafenib
rank by rScore values (resistance) [3, 5]: 3
rScore [3, 6]: above 0.2
effect on resistance to BRAF/MEK inhibition (rScore sorted, 297 factors) [3]: strongest effect on resistance

B1: ACHE: acetylcholinesterase (protein, UniProt P22303 32-614, looked up)
Acetylcholinesterase: EGREDAELLVTVRGGRLRGIRLKTPGGPVSAFLGIPFAEPPMGPRRFLPPEPKQPWSGVVDATTFQSVCYQYVDTLYPGFEGTEMWNPNRELSEDCLYLNVWTPYPRPTSPTPVLVWIYGGGFYSGASSLDVYDGRFLVQAERTVLVSMNYRVGAFGFLALPGSREAPGNVGLLDQRLALQWVQENVAAFGGDPTSVTLFGESAGAASVGMHLLSPPSRGLFHRAVLQSGAPNGPWATVGMGEARRRATQLAHLVGCPPGGTGGNDTELVACLRTRPAQVLVNHEWHVLPQESVFRFSFVPVVDGDFLSDTPEALINAGDFHGLQVLVGVVKDEGSYFLVYGAPGFSKDNESLISRAEFLAGVRVGVPQVSDLAAEAVVLHYTDWLHPEDPARLREALSDVVGDHNVVCPVAQLAGRLAAQGARVYAYVFEHRASTLSWPLWMGVPHGYEIEFIFGIPLDPSRNYTAEEKIFAQRLMRYWANFARTGDPNEPRDPKAPQWPPYTAGAQQYVSLDLRPLEVRRGLRAQACAFWNRFLPKLLSATDTLDEAERQWKAEFHRWSSYMVHWKNQFDHYSKQDRCSDL
synergism with BRAF and MEK inhibition ([3]; multiple melanoma cell lines): synergistic effect

B2: LTA: lymphotoxin alpha (protein, UniProt P01374 35-205, looked up)
Lymphotoxin-alpha: LPGVGLTPSAAQTARQHPKMHLAHSTLKPAAHLIGDPSKQNSLLWRANTDRAFLQDGFSLSNNSLLVPTSGIYFVYSQVVFSGKAYSPKATSSPLYLAHEVQLFSSQYPFHVPLLSSQKMVYPGLQEPWLHSMYHGAAFQLTQGDQLSTHTDGIPHLVLSPSTVFFGAFAL
effect on resistance to BRAF/MEK inhibition (rScore sorted, 297 factors) [3]: strongest effect on resistance

B3: CCL4: secreted factor of the secretome library (protein, UniProt P13236 24-92, looked up)
C-C motif chemokine 4: APMGSDPPTACCFSYTARKLPRNFVVDYYETSSLCSQPAVVFQTKRSKQVCADPSESWVQEYVYDLELN
effect on resistance to BRAF/MEK inhibition (rScore sorted, 297 factors) [3]: strongest effect on resistance

B4: TGFB3: Transforming Growth Factor Beta 3 (protein, UniProt P10600 301-412, looked up)
Transforming growth factor …: ALDTNYCFRNLEENCCVRPLYIDFRQDLGWKWVHEPKGYYANFCSGPCPYLRSADTTHSTVLGLYNTLNPEASASPCCVPQDLEPLTILYYVGRTPKVEQLSNMVVKSCKCS
rank by bScore values (synergism) [3, 5]: −3
bScore [3, 6]: below −0.15

B5: mFGF2: mouse FGF2 (protein, UniProt P15655 10-154, looked up)
Fibroblast growth factor 2: PALPEDGGAAFPPGHFKDPKRLYCKNGGFFLRIHPDGRVDGVREKSDPHVKLQLQAEERGVVSIKGVCANRYLAMKEDGRLLASKCVTEECFFFERLESNNYNTYRSRKYSSWYVALKRTGQYKLGSKTGPGQKAILFLPMSAKS
factor-mediated resistance to vemurafenib [1, 4]: mediated resistance to vemurafenib

B6: IL1A: secreted factor of the secretome library (protein, UniProt P01583 113-271, looked up)
Interleukin-1 alpha: SAPFSFLSNVKYNFMRIIKYEFILNDALNQSIIRANDQYLTAAALHNLDEAVKFDMGAYKSSKDDAKITVILRISKTQLYVTAQDEDQPVLLKEMPEIPKTITGSETNLLFFWETHGTKNYFTSVAHPNLFIATKQDYWVCLAGGPPSITDFQILENQA
effect on resistance to BRAF/MEK inhibition (rScore sorted, 297 factors) [3]: strongest effect on resistance
